{
  "source": "patent US11214772B2",
  "about": "“Production method for retinal tissue” (SUMITOMO DAINIPPON PHARMA CO., LTD., priority 2014, dated 2022)",
  "assay_type_in_all_cases": "cell-based",
  "key": {"[1]": {"tested_on": "human iPS cells (DSPC-3 strain)", "assay": "Immunostaining of aggregate frozen sections for retinal tissue markers Chx10 and Rx", "settings": "Example 8; SAG 300 nM day 0; BMP4 1.5 nM day 3; day 22", "excerpt": "Cell aggregates on day 22 after the start of suspension culturing were fixed with 4% para-formaldehyde to produce frozen sections. These frozen sections were immunostained for Chx10 (anti-Chx10 antibody, Exalpha, sheep), which is one of the retinal tissue markers, or Rx (anti-Rx antibody, manufactured by Takara, guinea pig), which is one of the retinal tissue markers."}, "[2]": {"tested_on": "human iPS cells (1231A3 strain)", "assay": "Bright field observation of cell aggregates in suspension culture (aggregate shape, neuroepithelium / neural tissue formation)", "protocol": "The above subconfluent human iPS cells were treated with a cell dispersion solution by using TrypLE Select (Life Technologies), and further dispersed into single cells by a pipetting operation. Thereafter, the above human iPS cells dispersed into single cells were suspended in 100 μl of a serum-free medium in a non-cell-adhesive 96 well culture plate (PrimeSurface 96V-bottom plate, SUMITOMO BAKELITE) at 1.2×10^4 cells per well, and subjected to suspension culturing at 37° C., 5% CO2. As a serum-free medium (gfCDM+KSR) therefor, a 1:1 mixture of F-12 medium and IMDM medium supplemented with 10% KSR, 450 μM 1-monothioglycerol, 1× Chemically defined lipid concentrate was used. At the start of the suspension culturing (on day 0 after the start of suspension culturing, step 2 start), Y27632 (final concentration 20 μM) was added to the above serum-free medium. By day 2 after the start of suspension culturing, cell aggregates were formed (step 2 completed, and step 3 start). On day 3 after the start of suspension culturing, a serum-free medium (50 μl) free of Y27632 was added.\nOn day 6 after the start of suspension culturing, a half amount of the medium was changed with a medium free of Y27632 and containing or not containing human recombinant BMP4 (manufactured by R&D) to adjust the final concentration of exogenous human recombinant BMP4 to 1.5 nM (55 ng/ml, FIG. 1B) or to give a medium free of exogenous human recombinant BMP4 (FIG. 1A). As the half-medium exchange operation, a half volume of the medium in the culture vessel, namely 75 μl, was discarded, the above fresh serum-free medium (75 μl) was added to adjust the total medium amount to 150 μl. Thereafter, a half amount of the medium was changed with the above serum-free medium free of Y27632 and human recombinant BMP4 once per 2-4 days. […]\nThe thus-prepared subconfluent human iPS cells were treated with a cell dispersion solution by using TrypLE Select (Life Technologies), and further dispersed into single cells by a pipetting operation. Thereafter, the above human iPS cells dispersed into single cells were suspended in 100 μl of a serum-free medium in a non-cell-adhesive 96 well culture plate (PrimeSurface 96V-bottom plate, SUMITOMO BAKELITE) at 1.2×10^4 cells per well, and subjected to suspension culturing at 37° C., 5% CO2. As a serum-free medium (gfCDM+KSR) therefor, a 1:1 mixture of F-12 medium and IMDM medium supplemented with 10% KSR, 450 μM 1-monothioglycerol, 1× Chemically defined lipid concentrate was used. […] By day 2 after the start of suspension culturing, cell aggregates were formed (step 2 completed, step 3 start). On day 3 after the start of suspension culturing, a serum-free medium (50 μl) free of Y27632 and SAG was added. On day 6 after the start of suspension culturing, a half amount of the medium was changed with a medium free of Y27632 and containing or not containing human recombinant BMP4 (manufactured by R&D) to adjust the final concentration of exogenous human recombinant BMP4 to 1.5 nM (55 ng/ml, FIG. 1D) or to give a medium free of exogenous human recombinant BMP4 (FIG. 1C). As the half-medium exchange operation, a half volume of the medium in the culture vessel, namely 75 μl, was discarded, the above fresh serum-free medium (75 μl) was added to adjust the total medium amount to 150 μl. Thereafter, a half amount of the medium was changed with the above serum-free medium free of Y27632, SAG and human recombinant BMP4 once per 2-4 days. […]\nThe thus-prepared subconfluent human iPS cells were treated with the cell dispersion solution by using TrypLE Select (Life Technologies), further dispersed into single cells by pipetting operation, and the above human iPS cells dispersed into single cells were suspended in 100 μl of a serum-free medium at 1.2×10^4 cells per well of a non-cell-adhesive 96-well culture plate (PrimeSurface 96V-bottom plate, manufactured by SUMITOMO BAKELITE). Thereafter, the cells were subjected to suspension culturing at 37° C., 5% CO2. […]"}, "[3]": {"tested_on": "human iPS cells (1231A3 strain)", "assay": "Immunostaining of aggregate cryosections for retinal tissue markers Chx10 and Rx", "excerpt": "The above cell aggregates on day 19 after the start of suspension culturing were each fixed with 4% para-formaldehyde to give cryosections. These cryosections were immunostained for Chx10 (anti-Chx10 antibody, manufactured by Exalpha, sheep), which is one of the retinal tissue markers, or Rx (anti-Rx antibody, manufactured by TAKARA, guinea pig), which is one of the retinal tissue markers. In judgment of whether the above marker is positive in the immunostaining analysis, a fluorescence intensity which is not less than 2 times higher than that of the background was taken as positive.\nThe thus-prepared cell aggregates on day 18 after the start of suspension culturing, which were produced by adding SAG in step 2 from feeder-free iPS cells as a starting material, were fixed with 4% para-formaldehyde to produce frozen sections. These frozen sections were immunostained for Chx10 (anti-Chx10 antibody, Exalpha, sheep), which is one of the retinal tissue markers, or Rx (anti-Rx antibody, manufactured by TAKARA, guinea pig), which is one of the retinal tissue markers. These immunostained sections were observed under an inverted fluorescence microscope.\nThe cell aggregates on day 18 after the start of suspension culturing were fixed with 4% para-formaldehyde to produce frozen sections. These frozen sections were immunostained for Chx10 (anti-Chx10 antibody, Exalpha, sheep), which is one of the retinal tissue markers."}, "[4]": {"settings": "Example 1, StemFit, SAG 300 nM day 0, BMP4 1.5 nM day 6, day 19"}, "[5]": {"settings": "Example 1, StemFit, SAG 300 nM day 0, no BMP4, day 19"}, "[6]": {"settings": "Example 2 Condition 3, Essential 8, SAG 300 nM day 0, no BMP4, day 18"}, "[7]": {"settings": "Example 4 Condition 1, SAG 300 nM day 0, BMP4 1.5 nM day 3, day 18"}, "[8]": {"settings": "Example 4 Condition 2, SAG 300 nM day 0, BMP4 1.5 nM day 6, day 18"}, "[9]": {"settings": "Example 5 Condition 1, SAG 600 nM day 0, BMP4 1.5 nM day 3, day 18"}, "[10]": {"settings": "Example 5 Condition 2, SAG 600 nM day 0, BMP4 1.5 nM day 6, day 18"}},
  "data": [
    {"smiles": "CNC1CCC(N(Cc2cccc(-c3ccncc3)c2)C(=O)c2sc3ccccc3c2Cl)CC1", "note": "(centres unmarked) [SAG]", "values": [
      {"measurement": "proportion of Chx10-positive cells in the total cells", "setting": "[1]", "value": "about 10%"},
      {"measurement": "proportion of Rx-positive cells in the total cells", "setting": "[1]", "value": "about 10%"},
      {"measurement": "aggregate shape and neuroepithelial structure (bright field)", "setting": "[2]; [4]", "value": "cell aggregates were maintained, and neuroepithelial structure was observed"},
      {"measurement": "aggregate shape and neuroepithelial structure (bright field)", "setting": "[2]; [5]", "value": "cell aggregates were maintained, and neuroepithelial structure was observed"},
      {"measurement": "aggregate shape and neuroepithelial structure (bright field)", "setting": "[2]; [6]", "value": "cell aggregates were maintained, and neuroepithelial structure was efficiently formed"},
      {"measurement": "proportion of bad form aggregates (collapsed, free of neuroepithelium)", "setting": "[2]; [6]", "value": 6, "unit": "%"},
      {"measurement": "proportion of good form aggregates (containing many neuroepithelia)", "setting": "[2]; [6]", "value": 93, "unit": "%"},
      {"measurement": "aggregate shape and neuroepithelial structure (bright field)", "setting": "[2]; Example 2 Condition 4, Essential 8, SAG 300 nM day 0, BMP4 1.5 nM day 6, day 18", "value": "cell aggregates were maintained, and neuroepithelial structure was efficiently formed"},
      {"measurement": "aggregate shape and neural tissue formation (microscope)", "setting": "[2]; Example 4 Condition 1, StemFit, SAG 300 nM day 0, BMP4 1.5 nM day 3, day 18", "value": "cell aggregates were maintained, and a neural tissue was formed"},
      {"measurement": "aggregate shape and neural tissue formation (microscope)", "setting": "[2]; Example 4 Condition 2, StemFit, SAG 300 nM day 0, BMP4 1.5 nM day 6, day 18", "value": "cell aggregates were maintained, and a neural tissue was formed"},
      {"measurement": "aggregate shape and neural tissue formation (microscope)", "setting": "[2]; Example 5 Condition 1, StemFit, SAG 600 nM day 0, BMP4 1.5 nM day 3, day 18", "value": "cell aggregates were maintained, and a neural tissue was formed"},
      {"measurement": "aggregate shape and neural tissue formation (microscope)", "setting": "[2]; Example 5 Condition 2, StemFit, SAG 600 nM day 0, BMP4 1.5 nM day 6, day 18", "value": "cell aggregates were maintained, and a neural tissue was formed"},
      {"measurement": "aggregate growth and neuroepithelium formation (bright field)", "setting": "[2]; Example 7, StemFit, SAG 30 nM, PMA 0.2 μM or human recombinant Shh 300 ng/ml day 0, BMP4 1.5 nM day 3, day 18", "value": "cell aggregates grew and neuroepithelium was formed"},
      {"measurement": "proportion of Chx10-positive cells", "setting": "[3]; [4]", "value": "not less than 60%"},
      {"measurement": "proportion of Rx-positive cells in the total cells", "setting": "[3]; [4]", "value": "not less than 60%"},
      {"measurement": "proportion of Chx10-positive cells", "setting": "[3]; [5]", "value": "less than 3%"},
      {"measurement": "proportion of Rx-positive cells in the total cells", "setting": "[3]; [5]", "value": "less than 3%"},
      {"measurement": "proportion of Chx10-positive cells", "setting": "[3]; [7]", "value": "about 40%"},
      {"measurement": "proportion of Rx-positive cells in the total cells", "setting": "[3]; [7]", "value": "about 40%"},
      {"measurement": "proportion of Chx10-positive cells", "setting": "[3]; [8]", "value": "about 40%"},
      {"measurement": "proportion of Rx-positive cells in the total cells", "setting": "[3]; [8]", "value": "about 40%"},
      {"measurement": "proportion of Chx10-positive cells", "setting": "[3]; [9]", "value": "about 40%"},
      {"measurement": "proportion of Rx-positive cells in the total cells", "setting": "[3]; [9]", "value": "about 40%"},
      {"measurement": "proportion of Chx10-positive cells", "setting": "[3]; [10]", "value": "about 40%"},
      {"measurement": "proportion of Rx-positive cells in the total cells", "setting": "[3]; [10]", "value": "about 40%"},
      {"measurement": "presence of Chx10-positive cells in the cell aggregate", "setting": "[3]; Example 7, SAG 30 nM or Shh 300 ng/ml day 0, BMP4 1.5 nM day 3, day 18", "value": "contained Chx10-positive cells"}
    ]}
  ]
}
